Measured values from publication PMC4937820, “Identification of selective inhibitors of RET and comparison with current clinical candidates through development and validation of a robust screening cascade” (F1000Research, 2016).

Key:
[1] = system: RET; settings: MZ-CRC-1 cells; confirmed in-house (data not shown); read-out: IC 50 in MZ-CRC-1 cells (RET); cited from earlier work
[2] = system: MZ-CRC-1 (RET (M918T)) versus HEK293 cells; experiment: Cell POP (proof of principle) proliferation assay, MZ-CRC-1 vs HEK293 control; type: cell-based, human; settings: IC50 HEK293 control cells divided by IC50 MZ-CRC-1 cells
[3] = system: RET-positive patients; settings: preliminary report of phase II trial; cited from earlier work
[4] = target: RET (Homo sapiens, UniProt P07949, M918T); experiment: RET cellular POM (proof of mechanism) assay; type: cell-based
[5] = system: RET; experiment: Western blot of pRET, total RET and GAPDH in MZ-CRC-1 cells; type: cell-based; settings: 1µM, 24 hours
Experimental: Following compound treatment (1µM, 24 hours), MZ-CRC-1 cell lysates (50 μg) were subjected to polyacrylamide gel electrophoresis (PAGE) and semi-dry transfer to nitrocellulose membrane using the Bio-Rad Trans-Blot Turbo system and Trans-Blot Turbo transfer packs. Membranes were blocked overnight at 4°C in phosphate-buffered saline containing 0.1% Tween (PBST; Sigma) and 5% non-fat dried milk powder (marvel). Primary and secondary antibody incubations were performed at room temperature in PBST/0.5% marvel with 3× PBST washes post incubation. pRET (Santa Cruz #SC-20252-R) and total RET (Santa Cruz #sc-167) antibodies were used at 1:500 dilutions; GAPDH (Cell Signaling Technology #2118L) and secondary goat anti rabbit IgG HRP-linked (Cell Signaling Technology #7074) antibodies were used at 1:1000. Proteins were visualized by chemiluminescent detection of peroxidase activity using SuperSignal reagent (Pierce), and images were captured using the Syngene imager and GeneSys software.

Sequence of RET (Homo sapiens, UniProt P07949, M918T) (P07949 29-1114 M918T): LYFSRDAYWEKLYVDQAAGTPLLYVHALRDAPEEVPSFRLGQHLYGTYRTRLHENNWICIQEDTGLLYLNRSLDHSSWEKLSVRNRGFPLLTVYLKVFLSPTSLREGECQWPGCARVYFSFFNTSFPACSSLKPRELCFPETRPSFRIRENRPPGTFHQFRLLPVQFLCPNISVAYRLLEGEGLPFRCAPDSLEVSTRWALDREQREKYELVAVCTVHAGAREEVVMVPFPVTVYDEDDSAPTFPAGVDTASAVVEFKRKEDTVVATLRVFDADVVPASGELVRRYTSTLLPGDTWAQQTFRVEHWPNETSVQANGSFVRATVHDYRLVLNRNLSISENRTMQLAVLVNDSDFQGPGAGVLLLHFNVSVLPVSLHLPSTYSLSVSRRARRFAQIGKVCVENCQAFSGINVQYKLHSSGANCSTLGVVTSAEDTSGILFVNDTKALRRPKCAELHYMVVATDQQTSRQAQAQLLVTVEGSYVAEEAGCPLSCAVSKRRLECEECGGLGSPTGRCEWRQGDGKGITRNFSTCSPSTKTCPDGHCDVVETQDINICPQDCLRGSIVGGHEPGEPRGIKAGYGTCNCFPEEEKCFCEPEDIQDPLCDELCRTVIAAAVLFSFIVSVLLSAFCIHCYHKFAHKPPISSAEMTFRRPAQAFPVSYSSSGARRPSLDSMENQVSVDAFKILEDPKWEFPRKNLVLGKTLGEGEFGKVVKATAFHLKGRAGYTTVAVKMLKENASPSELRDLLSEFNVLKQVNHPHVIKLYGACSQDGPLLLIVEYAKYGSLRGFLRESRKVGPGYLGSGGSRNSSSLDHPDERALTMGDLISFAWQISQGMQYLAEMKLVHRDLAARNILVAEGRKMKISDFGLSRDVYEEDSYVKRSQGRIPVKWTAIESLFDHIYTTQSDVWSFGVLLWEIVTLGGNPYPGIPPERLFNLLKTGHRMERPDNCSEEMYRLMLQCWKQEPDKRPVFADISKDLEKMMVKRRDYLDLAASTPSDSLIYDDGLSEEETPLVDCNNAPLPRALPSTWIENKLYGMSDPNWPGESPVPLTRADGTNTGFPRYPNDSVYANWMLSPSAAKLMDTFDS

Structure (SMILES) | Toxicity Margin [2] | also measured
CCc1cc2c(cc1N1CCC(N3CCOCC3)CC1)C(C)(C)c1[nH]c3cc(C#N)ccc3c1C2=O [Alectinib] | ^1>35× | IC50 [1]: […]
COc1cc2nccc(Oc3ccc(NC(=O)C4(C(=O)Nc5ccc(F)cc5)CC4)cc3)c2cc1OC [Cabozantinib] | – | Clinical response [3]: partial responses in two of three RET-positive patients
CC(C)c1cc(-c2n[nH]c(=O)n2-c2ccc3c(ccn3C)c2)c(O)cc1O [Ganetespib] | 0.7× | Selectivity vs. KDR (cell) ([4]; cellular, KDR IC50 divided by RET IC50): 0.36×; IC50 ([4]; geometric mean of at least four independent measurements, read-out: RET Cell IC 50): 3.9 nM; Effect on levels of active RET [5]: reduce levels of active RET, through protein degradation
COc1cc2nccc(Oc3ccc(NC(=O)NC4CC4)c(Cl)c3)c2cc1C(N)=O [Lenvatinib] | 141× | –
CNC(=O)c1cc(Oc2ccc(NC(=O)Nc3ccc(Cl)c(C(F)(F)F)c3)cc2)ccn1 [Sorafenib] | 13× | –
CCN(CC)CCNC(=O)c1c(C)[nH]c(/C=C2\C(=O)Nc3ccc(F)cc32)c1C [Sunitinib] | 28× | –
